Test results from patent publication US9987332B2, “Pharmaceutical composition for use in the treatment of a neurodegenerative disease” (SANOFI-AVENTIS DEUTSCHLAND GMBH, priority 2011, dated 2018).

How the values were obtained:
[1] = Uptake by the brain: levels in mouse brain tissue after i.p. injection; format: in vivo; conditions: 2.5 nmol/kg bw ip.
Method: Values are the mean±S.E.M. *p<0.05, **p<0.01.
Values are the mean±S.E.M. *p<0.05.
3 doses (2.5 nmol/kg bw, 25 nmol/kg bw and 250 nmol/kg bw, ip.) were tested, and the levels found in mouse brain tissue 30 min and 3 h post injection were examined.

[2] = Kastin et al 2001; McClean et al 2011; cited from earlier work

Levels in the brain at the lowest dose [1] | Molecule | Crossing of the blood brain barrier (BBB) [2]
did not show an increase | CCCCCCCCCCCCCCCC(=O)N[C@@H](CCC(=O)NCCCC[C@H](NC(=O)[C@H](C)NC(=O)[C@H](C)NC(=O)[C@H](CCC(N)=O)NC(=O)CNC(=O)[C@H](CCC(=O)O)NC(=O)[C@H](CC(C)C)NC(=O)[C@H](Cc1ccc(O)cc1)NC(=O)[C@H](CO)NC(=O)[C@H](CO)NC(=O)[C@@H](NC(=O)[C@H](CC(=O)O)NC(=O)[C@H](CO)NC(=O)[C@@H](NC(=O)[C@H](Cc1ccccc1)NC(=O)[C@@H](NC(=O)CNC(=O)[C@H](CCC(=O)O)NC(=O)[C@H](C)NC(=O)[C@@H](N)Cc1cnc[nH]1)[C@@H](C)O)[C@@H](C)O)C(C)C)C(=O)N[C@@H](CCC(=O)O)C(=O)N[C@@H](Cc1ccccc1)C(=O)N[C@H](C(=O)N[C@@H](C)C(=O)N[C@@H](Cc1c[nH]c2ccccc12)C(=O)N[C@@H](CC(C)C)C(=O)N[C@H](C(=O)N[C@@H](CCCNC(=N)N)C(=O)NCC(=O)N[C@@H](CCCNC(=N)N)C(=O)NCC(=O)O)C(C)C)[C@@H](C)CC)C(=O)O [liraglutide, Arg^34,Lys^26(N^ε(γ-glutamyl(N^α-hexadecanoyl)))GLP-1(7-37)] | have been shown to cross the blood brain barrier
 | GLP-1: 30-amino acid peptide hormone encoded in the proglucagon gene | have been shown to cross the blood brain barrier
